Like-named read-outs stand apart in the source and are kept apart here. One block for each compound: values may come before it.
Columns and labels:
[1] = test system: HIV-1 (HTLVIIIB); assay: microbe, parasite or virus in culture; assay type: cell-based; settings: H9 cells; for IC50: Human immunodeficiency virus 1
Description: (§3) The effects for test compounds were assessed by means of both IFA and p24 release. In general, the following protocol was followed: H9 cells were infected with HIV-1 at 1000 50% infective doses of viruses/10^6 cells. Virus was allowed to adsorb for 1 h, after which unadsorbed virus was removed by centrifugation. The cells were resuspended and washed twice with PBS (without Ca^+2 or Mg^+2 salts) and centrifuged to collect the cell pellet (150×g×10 min). Cells were suspended in fresh medium and added at a final cell density of 500,000 cells/ml in a 96-well plate with media containing 0.1% DMSO and various concentrations of test compounds. The cells were re-fed freshly prepared media containing 0.1% DMSO±test compounds on day four (for preinduction experiments, cells were exposed to inducers on days -2, 0, and +4 days relative to infection). After seven days, cells were examined for cytoxicity by trypan blue exclusion, the degree of infection with HIV-1 by IFA, and the supernatants were assayed for p24 levels according to the manufacturer's directions. The IFA procedure can be summarized as follows: The cells were washed twice in PBS and were placed in 5 mm 12-well slides. After allowing the slides to dry and fixing the cells with acetone for 5 min, 10 μl of HIV-1 positive serum in 40 μl PBS was added to each well and allowed to incubate at 37° C. for 30 min. After incubation, the slides were washed twice with PBS and incubated at 37° C. for 30 min with 2.5 μl goat anti-human IgG-fluorescein isothiocyanate conjugate in 50 μl PBS containing 0.01% Evans Blue per well. The slides were then washed twice with PBS, dried, and mounted with 50% glycerol in PBS, and scored for the percentage of fluorescent cells by fluorescent microscopy.

[2] = test system: H9 cells; assay: Cytotoxicity in H9 cells by trypan blue exclusion; assay type: cell-based, human; settings: up to 30 μM (tert-butylhydroquinone), 120 μM (1,2-dithiole-3-thione), 60 μM (dimethyl fumarate)
Description: as §3

[3] = target: T1, HIV-1 reverse transcriptase (RT) (Human immunodeficiency virus type 1 group M subtype B, UniProt P04585); assay: Inhibition of recombinant HIV-1 reverse transcriptase (TTP incorporation); assay type: biochemical
T1 construct: Recombinant HIV-1 reverse transcriptase (RT) was obtained from Worthington (Freehold, N.J.); purchased Worthington (Freehold, N.J.)
Description: (§1) Reverse transcriptase assays were performed as described by Flexner, et al. (25) using recombinant HIV-1 RT as the source of enzyme. Dilutions and assay were carried out in 96-well "half-area" plates. The enzyme with various concentrations of test compounds were dissolved in DPBS containing 1% w/v BSA and diluted in 50 μl volumes; 10 μl aliquots in triplicate were transferred to another plate for the enzyme assay. The reactions were initiated by the addition of 25 μl/well of buffer containing 50 mM Tris.cndot.Cl (pH 8.0), 75 mM KCl, 1 mM dithiothreitol, 2 mM MgCl2, 5 μg/ml poly(A), 2.5 μg/ml oligo (dT), 10 μCi/ml ^32 p TTP with or without unlabeled TTP. […] TTP incorporation was measured by spotting 20 μl of the reaction cocktail onto DE81 paper, washing the paper with 4×5 min washes of 300 mM NaCl and 30 mM sodium citrate (pH 7.0), drying the paper, and counting the paper by liquid scintillation counting. The assays performed with oltipraz and 1,2-dithiole-3-thione contained 0.29% final concentration DMSO. This concentration of DMSO had no effect on RT activity.

[4] = test system: quinone reductase (QR) in H9 cells; assay: Elevation of quinone reductase (QR) in H9 cells; assay type: cell-based, human; settings: for fold induction at 30 µM / fold induction at 60 µM / fold induction at 120 µM: Homo sapiens, read-out: Quinone reductase, treated to control value
Description: (§2) Five ml of medium was added to T-25 flasks and DMSO containing tests compounds were added to a final concentration of 0.1%. Control medium contained 0.1% DMSO. After the drugs were added, 5×10^6 cells in 5 ml of medium was added to each T-25 flask. The cells were grown at 37° C. in a humidified incubator supplemented with 5% CO2 until harvested (N=3 flasks/group). At the indicated times, cells were isolated by centrifugation (500×g×10 min) and were washed three times by adding 10 ml of ice-cold DPBS, mixing, and centrifuging in a refrigerated centrifuge (500×g×10 min) to isolate the cell pellets. The cells were then lysed by the addition of 400 μl of ice-cold DPBS containing 0.5% Triton X-100 and vortexing. Supernatants were then isolated by centrifuging the lysates (5000×g×20 min). Samples were kept on ice or refrigerated until the reagents for QR or GSH spectrophotometric assays were added to the aliquoted microtiter plates. QR levels were determined by aliquoting 10 μl/well of supernatant in a 96-well plate and measuring the activity by the assay described by Prochaska and Santamaria (20) except that the final NADP^+ concentration was 200 μM (21). Samples were assayed in quadruplicate, and dicoumarol inhibitable-rates (which generally represented less than 5% of the total rate) were also measured. Spectrophotometric blanks contained 10 μl of DPBS with 0.5% Triton X-100. For the GSH assay, 300 μl of sample was placed in a centricon-10microconcentrator and centrifuged (5000×g×45 min) until enough ultrafiltrate could be collected. 50 μl/well of sample in quadruplicate was placed in a 96 well "half-area" plate after which 20 μl of 1 mM Ellman's reagent dissolved in DPBS was added. The yellow color (22) developed within 5 min and was scanned with a uvmax microtiter scanner (Palo Alto, Calif.) at 405 nm. Spectrophotometric blanks contained 50 μl DPBS with 0.5% Triton X-100 and 20 μl of 1 mM Ellman's reagent in DPBS. The optical densities of the specimens were calibrated to a GSH standard curve. Protein contents were determined in 3 ml cuvettes by the Bradford method (23). The protein content in the ultrafiltrates employed for GSH determinations were negligible (<0.01 mg/ml).
We confirmed that the induction of QR in microtiter wells mirrored our results in T-25 flasks by using the method of Prochaska and Santamaria (20). Medium (100 μl) containing 0.1% final concentration DMSO was added to all wells except columns designated to contain the highest concentration of drug or spectrophotometric blanks in duplicate sets of U-bottomed microtiter plates. 200 μl of media containing drug (final DMSO concentration=0.1%) was added to the empty column of wells and then diluted in 2-fold serial dilutions across. After the serial dilutions were performed, 100 μl of media containing 1×10^6 cells/ml was added to each well, and the plates were placed in a 37° C. incubator for 48 h. One set of plates was assayed as described (21) for QR activity, the other was assayed for cell number by the method for Alley et al. (24).

[5] = test system: glutathione levels (GSH) in H9 cells; assay: Elevation of glutathione (GSH) levels in H9 cells; assay type: cell-based, human; settings: for fold induction at 30 µM / fold induction at 60 µM / fold induction at 120 µM: Homo sapiens, read-out: Glutathione levels, treated to control value
Description: as §2

[6] = target: T1, HIV-1 reverse transcriptase (RT); assay: Time-dependent (irreversible) inhibition of HIV-1 reverse transcriptase after preincubation; assay type: biochemical; settings: kinetic behaviour
Description: FIG. 6. […] RT was preincubated for the times indicated with oltipraz dissolved in DPBS containing 1 mg/ml bovine serum albumin, 0.13% DMSO, and either 4 μM TTP or 5 μg/ml poly(A):2.5 μg/ml oligo(dT). After incubation, 10 μl aliquots in triplicate were added to 25 μl of a reaction cocktail containing 4 μM TTP, 5 μg/ml poly(A), and 2.5 μg/ml oligo(dT) and assayed for TTP incorporation into DNA over 30 min. as described by Flexner, et al. (25). The insets are Kitz-Wilson transformations (41).
as §1, with “DMSO.” for “DMSO. This concentration of DMSO had no effect on RT activity.”

[7] = dose- and time-dependent, H9 cells
[8] = Exp 1, IFA, read-out: IC50 HIV-1 replication (Exp 1)
[9] = Exp 2, IFA, read-out: IC50 HIV-1 replication (Exp 2)

SMILES: S=c1ccss1 [1,2-dithiole-3-thione]
inhibition of HIV-1 replication ([1]; up to 120 μM): inactive | cytotoxicity at optimal inductive doses [2]: non-cytotoxic | inhibition of recombinant HIV-1 reverse transcriptase ([3]; poly(A):oligo(dT) and TTP as substrates): inactive | Quinone Reductase Specific Activity ([4]; 48 h, 30 μM): 232 ± 16 nmol/min/mg | Quinone Reductase Specific Activity ([4]; 48 h, 60 μM): 244 ± 12.1 nmol/min/mg | Quinone Reductase Specific Activity ([4]; 48 h, 120 μM): 299 ± 11 nmol/min/mg | Quinone Reductase Specific Activity ([4]; 96 h, 30 μM): 59.4 ± 1.4 nmol/min/mg | Quinone Reductase Specific Activity ([4]; 96 h, 60 μM): 65.0 ± 2.1 nmol/min/mg | Quinone Reductase Specific Activity ([4]; 96 h, 120 μM): 109 ± 28 nmol/min/mg | fold induction at 30 µM ([4]; H9, 48 h): 1.61 | fold induction at 60 µM ([4]; H9, 48 h): 1.67 | fold induction at 120 µM ([4]; H9, 48 h): 2.07 | fold induction at 30 µM ([4]; H9, 96 h): 1.17 | fold induction at 60 µM ([4]; H9, 96 h): 1.71 | fold induction at 120 µM ([4]; H9, 96 h): 2.15 | elevation of QR [4, 7]: able to elevate both GSH and QR levels | Glutathione Levels ([5]; 48 h, 30 μM): 53.5 ± 7.1 nmol/mg | Glutathione Levels ([5]; 48 h, 60 μM): 57.5 ± 1.3 nmol/mg | Glutathione Levels ([5]; 48 h, 120 μM): 74.9 ± 3.6 nmol/mg | Glutathione Levels ([5]; 96 h, 30 μM): 59.4 ± 1.4 nmol/mg | Glutathione Levels ([5]; 96 h, 60 μM): 65.0 ± 2.1 nmol/mg | Glutathione Levels ([5]; 96 h, 120 μM): 109 ± 28 nmol/mg | fold induction at 30 µM ([5]; H9, 48 h): 1.17 | fold induction at 60 µM ([5]; H9, 48 h): 1.26 | fold induction at 120 µM ([5]; H9, 48 h): 1.63 | fold induction at 30 µM ([5]; H9, 96 h): 1.17 | fold induction at 60 µM ([5]; H9, 96 h): 1.71 | fold induction at 120 µM ([5]; H9, 96 h): 2.15 | elevation of GSH [5, 7]: able to elevate both GSH and QR levels

SMILES: Cc1cn([C@H]2C[C@H](N=[N+]=[N-])[C@@H](COP(=O)(O)OP(=O)(O)OP(=O)(O)O)O2)c(=O)[nH]c1=O [AZT triphosphate, 3'-azido-3'-deoxythymidine-5'-triphosphate]
potency relative to oltipraz (reverse transcriptase) ([3]; identical assay conditions): approximately 1000 fold

SMILES: O=c1cc(-c2cnccn2)ss1 [compound 3]
IC50 HIV-1 replication (Exp 2) ([1]; Exp 2, IFA): Inactive | IC50 [1, 8]: 4 µM

SMILES: Cc1c(-c2ccncc2)ssc1=S [compound 7]
IC50 [1, 8]: 60 µM | IC50 [1, 9]: 60 µM

SMILES: Cc1c(-c2cccnn2)ssc1=S [compound 8]
IC50 [1, 8]: 2 µM | IC50 [1, 9]: 4 µM

SMILES: Cc1c(-c2cccs2)ssc1=S [compound 9, 4-methyl-5-(2-thiofuranyl)-1,2-dithiole-3-thione]
IC50 [1, 8]: 0.4 µM | IC50 [1, 9]: 2 µM | IC50 ([1]; N=5 independent experiments, IFA, read-out: IC50 HIV-1 replication): 1.8 ± 0.7 µM | irreversible inhibition of reverse transcriptase [6]: behaves kinetically as an irreversible inhibitor of reverse transcriptase

SMILES: Cc1c(C=Cc2cnccn2)ssc1=S [compound 10]
IC50 [1, 8]: > 60 µM | IC50 [1, 9]: > 60 µM

SMILES: Cc1c(-c2cnccn2)ssc1=O [compound 12]
IC50 HIV-1 replication (Exp 2) ([1]; Exp 2, IFA): Inactive | IC50 [1, 8]: 10 µM

The next lines start with the values.

IC50 HIV-1 replication (Exp 1) ([1]; Exp 1, IFA): Inactive | IC50 HIV-1 replication (Exp 2) ([1]; Exp 2, IFA): Inactive
SMILES: S=c1cc(-c2ccccc2)ss1 [compound 1]

IC50 HIV-1 replication (Exp 1) ([1]; Exp 1, IFA): Inactive | IC50 HIV-1 replication (Exp 2) ([1]; Exp 2, IFA): Inactive
SMILES: COc1ccc(-c2cc(=S)ss2)cc1 [compound 2]

IC50 HIV-1 replication (Exp 1) ([1]; Exp 1, IFA): Inactive | IC50 HIV-1 replication (Exp 2) ([1]; Exp 2, IFA): Inactive
SMILES: Cc1ncc(-c2cc(=S)ss2)nc1C [compound 4]

IC50 [1, 8]: 3 µM | IC50 [1, 9]: 10 µM
SMILES: Cc1c(-c2ccccn2)ssc1=S [compound 5]

IC50 HIV-1 replication (Exp 2) ([1]; Exp 2, IFA): Inactive | IC50 [1, 8]: 10 µM
SMILES: Cc1c(-c2cccnc2)ssc1=S [compound 6]
